This passage reports CC50 results from ChEMBL document CHEMBL1129227, “Synthesis and in vitro cytotoxic activity of novel hexahydro-2H-pyrido[1,2-b]isoquinolines against human brain tumor cell lines” (1997).

Molecules are shown by their SMILES.

Holding throughout (type): functional
Common to all, as to details: read-out: LC50 (the source's name)

For one test, the system named is A 172. Kind of test: Compound was evaluated for the in vitro cytotoxicity against A-172 human glioblastoma cell line.
A further test relates to D283 Med. Kind of test: Compound was evaluated for the in vitro cytotoxicity against […] Med human brain medulloblastoma tumor cell line.
The subject of a further test is T98G. Nature of the test: Compound was evaluated for the in vitro cytotoxicity against T98G human glioblastoma cell line.

On to `CC(C)[C@H]1CCN2Cc3ccccc3C[C@H]2[C@H]1/N=C/c1ccc(Cl)cc1`, for which the CC50 in the test with A 172 was found to be 97 µM; in the test with D283 Med, 50 µM; in the test with T98G, 45 µM.

For `CC(C)[C@H]1CCN2Cc3ccccc3C[C@H]2[C@H]1/N=C/c1ccccc1`, the results for the CC50 in the test with A 172 and in the test with T98G were 226 µM and 222 µM, respectively.

`C=C(C)[C@H]1CCN2Cc3ccccc3C[C@H]2[C@@H]1NCC(F)(F)F`: the CC50 in the test with A 172 came to 157 µM; with D283 Med it was 40 µM; with T98G it was 172 µM.

Take `C=C(C)[C@H]1CCN2Cc3ccccc3C[C@H]2[C@H]1NCc1ccc(Cl)cc1`: the CC50 in the test with A 172 was determined as 55 µM; with D283 Med it was 29 µM; in the test on T98G, 42 µM.

Take `C=C(C)[C@H]1CCN2Cc3ccccc3C[C@H]2[C@@H]1NCc1ccccc1`: the CC50 is 58 µM in the test on A 172, 53 µM with D283 Med and 43 µM in the test with T98G.

With `C=C(C)[C@H]1CCN2Cc3ccccc3C[C@H]2[C@H]1O`, the CC50 in the test with A 172 worked out at 158 µM; with D283 Med it was 143 µM.
